Number of cells data for two compounds are collected here from patent US20250213597A1, “AGENT FOR INDUCING PROLIFERATION OR DIFFERENTIATION OF CHONDROCYTE” (TOHOKU UNIVERSITY, priority 2022, published 2025).

The subject of the test is ATDC5 cells. The test can be described thus: Proliferation test of ATDC5 cells. It is filed as cell-based. The procedure: ATDC5 cells were cultured at a cell density of 5×10^5 cells/35 mm dish. As the culture solution, DMEM-Ham's F12 medium containing 5% FBS and 1% Pen/Strep was used. Adjustment was conducted to final concentrations of MPMBP of 10 μM (M10) and 100 μM (M100), clodronate of 10 μM (C10) and 100 μM (C100), zoledronate of 10 μM (Z10) and 100 μM (Z100) and a control (Vehicle), and the cells were cultured under the conditions of 5% CO2 at 37° C. The medium was changed every three days.

For the compound `O=P(O)(O)C(Cl)(Cl)P(=O)(O)O` [clodronate], the number of cells result (third day of culture, 10 μM) is on record as “increased” and the number of cells entry (third day of culture, 100 μM) is reported as “increased”.
On to `O=P(O)(O)C(O)(Cn1ccnc1)P(=O)(O)O` [zoledronate], for which the number of cells entry runs as follows: (sixth day of culture, 10 μM) “decreased significantly”; (sixth day of culture, 100 μM) “decreased significantly”; (third day of culture, 10 μM) “decreased”; (third day of culture, 100 μM) “decreased”.
